Experimental data taken from patent publication US20160237398A1, “METHODS OF MICROBIAL PRODUCTION OF EXCRETED PRODUCTS FROM METHANE AND RELATED BACTERIAL STRAINS” (UNIVERSITY OF WASHINGTON THROUGH ITS CENTER FOR …, priority 2013, published 2016).

Key:
[1] = tested on: pyruvate kinase (pyk2, MALCv4_3080); assay: Effect of effectors on activity of purified recombinant pyruvate kinase; type: biochemical, Methylomicrobium alcaliphilum 20Z; conditions: for Relative activity: control without effector = 100; for stimulation of enzyme activity: in the presence of the RuMP pathway intermediate
Method: Methanotrophic pyruvate kinase-purification and characterization.
(§1) Protein purification and characterization. Activities of key enzymes of the central metabolic pathways were measured as described. Pyruvate forming activity in cell-free extracts of M. alcaliphilus 20Z was also measured using Pyruvate Assay Kit (BioVision Inc. CA, USA). Recombinant pyruvate kinase PK-ubiqitin-His6 (“His6” disclosed as SEQ ID NO: 7) was obtained by cloning of the pyk2 gene (MALCv4_3080) in the vector pHUE and expressing in E. coli BL21 (DE3) cells growing in the presence of 0.5 mM IPTG for 5 hours at 37° C. PK-ubiqitin-His6 enzyme (“His6” disclosed as SEQ ID NO: 7) was purified by affinity chromatography on a Ni^2+-NTA column as described earlier.

[2] = tested on: 20ZER; assay: Accumulation of extracellular metabolites by the culture with an inhibitor of the cyt bc complex; type: cell-based, Methylomicrobium alcaliphilum; conditions: 20ZER + antimycin, dO2 ^ 40%
Method: Cultivation and growth parameters. M. alcaliphilum 20Z cells were grown using a mineral salts medium in either closed vials (50 ml culture in 250 ml vials, with shaking at 200 rpm) or bioreactor cultures (fed-batch or chemostat; 1 L working volume in a two liter bench top BioFlo™ 110 modular bioreactors, New Brunswick Scientific, Edison, N.J.). Cells were grown at 28-30° C. Optical density of cell cultures was measured on a Beckman DU® 640B spectrophotometer in plastic 1.5 mL cuvettes with a 1 cm path length. Chemostat cultures maintained a steady-state optical density at 600 nm (OD600) of approximately 2.0±0.2. […] Samples of inflow and outflow gases were either collected daily in triplicates for gas analysis or were analyzed immediately every 15 minutes using a SRI 8610C™ Gas Chromatograph connected to a bioreactor unit. The rates of methane consumption and H2 production were determined by incubating cell samples (50 ml, OD600 between 2 and 4) in closed 250 ml vials for 12-60 h at 28° C. […]

[3] = target: pyruvate kinase 2 from M. alcaliphilum 20Z (Methylotuvimicrobium alcaliphilum, UniProt G4T2L7); type: biochemical, Methylomicrobium alcaliphilum 20Z; conditions: in the presence of 2.5 mM ribose-5-phosphate; read-out: S0.5 (used in place of Km, non Michaelis-Menten)
Sequence of pyruvate kinase 2 from M. alcaliphilum 20Z (G4T2L7 entry or part of it): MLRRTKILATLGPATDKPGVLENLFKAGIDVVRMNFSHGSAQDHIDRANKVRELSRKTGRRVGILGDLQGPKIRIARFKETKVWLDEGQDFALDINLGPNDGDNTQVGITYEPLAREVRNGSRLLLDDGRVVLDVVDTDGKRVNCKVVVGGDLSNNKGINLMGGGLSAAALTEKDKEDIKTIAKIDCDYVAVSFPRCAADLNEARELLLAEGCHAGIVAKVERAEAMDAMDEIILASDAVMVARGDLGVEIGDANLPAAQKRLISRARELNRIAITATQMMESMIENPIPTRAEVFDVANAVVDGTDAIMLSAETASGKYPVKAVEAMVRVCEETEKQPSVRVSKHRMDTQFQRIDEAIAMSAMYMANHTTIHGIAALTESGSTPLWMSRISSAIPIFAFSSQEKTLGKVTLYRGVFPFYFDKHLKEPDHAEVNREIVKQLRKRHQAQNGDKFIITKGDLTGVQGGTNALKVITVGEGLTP
Method: as §1

Compound: Nc1ncnc2c1ncn2[C@@H]1O[C@H](COP(=O)(O)O)[C@@H](O)[C@H]1O [AMP]
- Relative activity ([1]; effector 2 mM): 126%

Compound: O=C[C@H](O)[C@H](O)[C@H](O)COP(=O)(O)O [Ribose-5-phosphate]
- inhibitory effect of ATP, PPi and Pi after addition of the activator [1]: completely abolished
- Relative activity ([1]; effector 5 mM): 2092%
- stimulation of enzyme activity [1]: 20 fold

Compound: O=P(O)(O)O[C@H]1O[C@H](CO)[C@@H](O)[C@H](O)[C@H]1O [Glucose-1-phosphate]
- Relative activity ([1]; effector 5 mM): 67%

Compound: O=C[C@H](O)[C@@H](O)[C@H](O)[C@H](O)COP(=O)(O)O [Glucose-6-phosphate]
- Relative activity ([1]; effector 5 mM): 2545%
- stimulation of enzyme activity [1]: 20 fold

Compound: Nc1ncnc2c1ncn2[C@@H]1O[C@H](COP(=O)(O)OP(=O)(O)OP(=O)(O)O)[C@@H](O)[C@H]1O [ATP]
- effect on enzyme activity [1]: strongly inhibited
- Relative activity ([1]; effector 0.5 mM): 64%
- Relative activity ([1]; effector 1 mM): 32%
- Relative activity ([1]; effector 2 mM): 12%

Compound: O=P(O)(O)O [Pi, inorganic phosphate]
- effect on enzyme activity [1]: strongly inhibited
- Relative activity ([1]; effector 6 mM): 11%

Compound: O=C(CO)[C@@H](O)[C@H](O)[C@H](O)COP(=O)(O)O [Fructose-6-phosphate]
- inhibitory effect of ATP, PPi and Pi after addition of the activator [1]: completely abolished
- Relative activity ([1]; effector 5 mM): 2518%
- stimulation of enzyme activity [1]: 20 fold

Compound: O=C[C@H](O)[C@H](O)COP(=O)(O)O [Erythrose-4-phosphate]
- Relative activity ([1]; effector 5 mM): 740%
- stimulation of enzyme activity [1]: 20 fold

Compound: O=C(COP(=O)(O)O)[C@@H](O)[C@H](O)[C@H](O)COP(=O)(O)O [Fructose-1,6-bisphosphate]
- Relative activity ([1]; effector 5 mM): 158%

Compound: O=C(O)CC(O)(CC(=O)O)C(=O)O [Citrate]
- Relative activity ([1]; effector 1 mM): 140%

Compound: O=P(O)(O)O[C@H]1O[C@H](CO)[C@@H](O)[C@H]1O [Ribose-1-phosphate]
- Relative activity ([1]; effector 5 mM): 92%

Compound: O=C(O)[C@@H](CO)OP(=O)(O)O [2-phosphoglycerate]
- Relative activity ([1]; effector 2 mM): 75%

Compound: O=C(O)CC(O)C(=O)O (centres unmarked) [Malate]
- Relative activity ([1]; effector 1 mM): 82%

Compound: antimycin A
- Accumulation of extracellular Acetate [2]: 3955 ± 230 μmol L^−1 g^−1 CDW
- Accumulation of extracellular Lactate [2]: 437 ± 30 μmol L^−1 g^−1 CDW

Compound: O=C(CO)[C@H](O)[C@H](O)COP(=O)(O)O [Ribulose-5-phosphate]
- Relative activity ([1]; effector 5 mM): 1890%
- stimulation of enzyme activity [1]: 20 fold

Compound: N[C@@H](CO)C(=O)O [Serine]
- Relative activity ([1]; effector 1 mM): 133%

Compound: O=C(COP(=O)(O)O)[C@@H](O)[C@H](O)[C@H](O)CO [Fructose-1-phosphate]
- Relative activity ([1]; effector 5 mM): 270%

Compound: O=P(O)(O)OP(=O)(O)O [PPi, pyrophosphate]
- effect on enzyme activity [1]: strongly inhibited
- Relative activity ([1]; effector 2 mM): 14%

Compound: [Cl-].[Cl-].[Mg+2] [MgCl2]
- Km [3]: 1990 µM
